From US20240400638A1, “COMBINATION OF RELAXIN AND VASOPRESSIN ANALOGUES FOR TREATMENT OF RENAL DISORDERS OR CONDITIONS” (River 2 Renal Corp., priority 2021, published 2024)
Read-outs that look alike come from different tables or passages of the source. Numbered stars: 1 amine (or outer) side, 2 acyl side, 3 side chain; on linkers, the order of the positions; unused ones are H or OH. Square brackets hold non-standard residues; d marks the D form. Side chains are listed from the residue outwards. Peptide text beside a SMILES is read from it. * marks the point of attachment. X1 = CCCCCCCCCCCCCCCC(=O)N[C@@H](CCC(=O)N[C@@H](CCC(=O)N[C@@H](CCC(=O)NCCCOCCOCCOCCCNC(=O)CCC(=O)NCCCOCCOCCOCCCNC(=O)CCC(=O)NCCCOCCOCCOCCCN*)C(=O)O)C(=O)O)C(=O)O; Suc = O=C(CCC(=O)[*:2])[*:1]; αMeK = C[C@](N)(CCCCN)C(=O)O; Aib = CC(C)(N)C(=O)O

Tests used:
Type in all cases: in vivo, human
[1] = Phase 1 SAD/MAD study in healthy volunteers: safety and tolerability
Procedure: (§1) Described in this Example is a Phase 1, randomized, double-blind, pacebo controlled trial for assessing safety, tolerability, PK, and PD of a Relaxin Agonist (i.e., Relaxin peptide analogue of SEQ ID NO: 3).
(§2) The SAD part A was a SAD study with a total of 40 subjects (n=8 per cohort; 6 to Relaxin Agonist and 2 to placebo) to be enrolled sequentially in up to 5 cohorts (Cohorts A1 to A5). Four cohorts received a dose via SC injection only and 1 cohort (Cohort A2, 4.0 mg) was dosed via both SC and IV injection, with at least 2-week washout period between SC and IV injections. The 4.0 mg dosing cohort (Cohort A2) received the IV dose after the 12.0 mg SC cohort (Cohort A3) was completed. Subjects in each cohort received 1 of 5 dose levels (1.0 mg, 4.0 mg, 12.0 mg, 24.0 mg, and 48.0 mg) or matching placebo as follows: • Cohort A1: a single SC dose of 1.0 mg Relaxin Agonist (n=6) or matching placebo (n=2) • Cohort A2: Period 1 a single SC dose of 4.0 mg Relaxin Agonist (n=6) or matching placebo (n=2) • Cohort A2: Period 2 a single 15-min IV dose of 4.0 mg Relaxin Agonist (n=6) or matching placebo (n=2) • Cohort A3: a single SC dose of 12.0 mg Relaxin Agonist (n=6) or matching placebo (n=2) • Cohort A4: a single SC dose of 24.0 mg Relaxin Agonist (n=6) or matching placebo (n=2) • Cohort A5: a single SC dose of 48.0 mg Relaxin Agonist (n=6) or matching placebo (n=2)
In this first-in-human study, the subjects in all SAD cohorts were dosed according to a sentinel dosing design to ensure optimal safety. This meant that initially 2 subjects were dosed: 1 subject with Relaxin Agonist and 1 subject with placebo. If at the lowest dose level (Cohort A1) the safety and tolerability results of the first 48 h following dosing for the initial subjects was acceptable to the Investigator, the other 6 subjects (5 active and 1 placebo) were to be dosed. In Cohorts A2 to A5, the safety and tolerability results of the first 24 h following dose administration were evaluated in the first 2 subjects before the remainder of the subjects in that cohort are dosed.
(§3) In the MAD part B of the study, a total of 24 subjects (n=8 per cohort; 6 to Relaxin Agonist and 2 to placebo) were enrolled sequentially (Cohorts B1 to B3) with subjects within a cohort being enrolled in a parallel fashion. Cohorts B1 to B3 receive one of 3 SC doses (5.0 mg, 15.0 mg, 30.0 mg once daily [QD]) as follows: • Cohort B1: 5.0 mg SC Relaxin Agonist (n=6) or matching placebo (n=2) QD for 14 days • Cohort B2: 15.0 mg SC Relaxin Agonist (n=6) or matching placebo (n=2) QD for 14 days • Cohort B3: 30.0 mg SC Relaxin Agonist (n=6) or matching placebo (n=2) QD for 14 days

[2] = Phase 1 SAD/MAD study in healthy volunteers: pharmacokinetics; conditions: for AUC(0-t): read-out: AUC0-24
Procedure: as §1, §2, §3
After 24 mg and 48 mg sc doses, higher than dose-proportional exposures were observed (approximately 15% higher than expected).
Therefore, after sc administration, the absolute bioavailability (F) is approximately 0.76.
Preliminary PK results after single and multiple ascending doses of Relaxin Agonist administered subcutaneously (sc) are summarized in Table 6. For all dose regimens (5 mg, 15 mg, and 30 mg), an accumulation of approximately 2.6-fold was observed on Day 14.

[3] = Phase 1 single dose study in severe renal impaired and normal renal function subjects: pharmacokinetics; conditions: for AUC(0-inf) / Cmax: human, in vivo, sc, 4 mg, single 4.0 mg sc; for AUC(0-inf): read-out: AUCINF_pred
Excerpt: (§4) This study is an open label, phase 1, multi-centre, single dose study in severe renal impaired subjects and in matched subjects with normal renal function. In this preliminary evaluation, five subjects with severe renal impairment and two subjects with normal renal function were included.
This study is a Phase 1, multi-center, single dose study in severe renal impaired subjects and in matched subjects with normal renal function. Five subjects with severe renal impairment and two subjects with normal renal function were included. PK sampling was performed predose and at 1, 2, 3, 4, 6, 8, 10, 12, 24, 48, 72, 96, and 120 h postdose.

[4] = Phase 1 single dose study in severe renal impaired and normal renal function subjects: safety; conditions: single sc 4.0 mg
Excerpt: as §4

[5] = part B: once daily sc 5.0, 15.0, 30 mg for 14 days
[6] = severe renal impaired group compared to normal group and SAD 4 mg group

CCCCCCCCCCCCCCCC(=O)N[C@@H](CCC(=O)N[C@@H](CCC(=O)N[C@@H](CCC(=O)NCCCOCCOCCOCCCNC(=O)CCC(=O)NCCCOCCOCCOCCCNC(=O)CCC(=O)NCCCOCCOCCOCCCNC(=O)CCC(=O)NCCCC[C@H](NC(=O)CNC(=O)[C@H](CCC(=O)O)NC(=O)C(C)(C)NC(=O)C(C)(C)NC(=O)[C@@H](NC(=O)[C@H](CCCCNC(C)=O)NC(=O)[C@H](C)NC(=O)[C@H](CCCNC(=N)N)NC(=O)[C@@H](NC(=O)[C@H](CCCCN)NC(=O)[C@H](CCC(=O)O)NC(=O)[C@H](CCCNC(=N)N)NC(=O)CNC(=O)[C@H](CCC(=O)O)NC(=O)[C@H](CC(C)C)NC(C)=O)C(C)C)[C@@H](C)CC)C(=O)N[C@@H](CO)C(=O)N[C@H](C(=O)N[C@@H](Cc1ccccc1)C(=O)N[C@@H](CO)C(=O)N[C@@](C)(CCCCN)C(=O)N[C@@H](CCCNC(=N)N)C(=O)N[C@@H](C)C(=O)N[C@@H](CCCCNC(C)=O)C(N)=O)[C@@H](C)O)C(=O)O)C(=O)O)C(=O)O [SEQ ID NO: 3, Ac-L-E-G-R-E-K-V-R-A-K(Ac)-I-Aib-Aib-E-G-K(TTDS-TTDS-TTDS-gE-gE-gE-Palm)-S--T-F-S-Mly-R-A-K(Ac)-NH2] (Ac-LEGREKVRAK(Ac)I[Aib][Aib]EGK([Suc-X1])STFS[αMeK]RAK(Ac)-NH2)
tolerability and safety ([1]; part A: single sc 1.0, 4.0, 12.0, 24, 48 mg and single iv 4.0 mg): well tolerated and safe
severity of reported adverse events ([1]; part A: single sc 1.0-48 mg and iv 4.0 mg): mild (grade 1)
severity of reported adverse events [1, 5]: mild (grade 1)
tolerability and safety [1, 5]: well tolerated and safe
AUCinf after iv administration as compared to sc administration ([2]; 4 mg single dose iv vs sc): ~1.3 fold
Cmax after iv administration as compared to sc administration ([2]; 4 mg single dose iv vs sc): approximately 3.5 fold
accumulation ([2]; Day 14, all dose regimens (5 mg, 15 mg, 30 mg sc QD)): approximately 2.6 fold
exposure higher than expected (higher than dose-proportional) ([2]; after 24 mg and 48 mg sc single doses): approximately 15%
bioavailability ([2]; human, in vivo, 4 mg, after sc administration, read-out: absolute bioavailability (F)): ~76%
Cmax ([2]; human, in vivo, iv, 4 mg, Group A2, single 4.0 mg iv, mean, N=6, read-out: Cmax): 1240 ng/mL
Cmax ([2]; human, in vivo, sc, 1 mg, Group A1, single 1.0 mg sc, mean, N=6, read-out: Cmax): 82.9 ng/mL
Cmax ([2]; human, in vivo, sc, 4 mg, Group A2, single 4.0 mg sc, mean, N=6, read-out: Cmax): 356 ng/mL
AUC(0-t) ([2]; human, in vivo, sc, 5 mg, Group B1, 5 mg sc QD, Day 1, mean, N=6): 7790 ng·h/mL
Cmax ([2]; human, in vivo, sc, 5 mg, Group B1, 5 mg sc QD, Day 1, mean, N=6, read-out: Cmax): 384 ng/mL
Cmax ([2]; human, in vivo, sc, 5 mg, Group B1, 5 mg sc QD, Day 14, mean, N=6, Table 6, read-out: Cmax): 1020 ng/mL
Cmax ([2]; human, in vivo, sc, 5 mg, Group B1, 5 mg sc QD, Day 14, mean, N=6, Table 7, read-out: Cmax): 1020 ng/mL
AUC(0-t) ([2]; human, in vivo, sc, 5 mg, Group B1, 5 mg sc QD, Day 14, mean, N=6): 21600 ng·h/mL
Cmax ([2]; human, in vivo, sc, 12 mg, Group A3, single 12.0 mg sc, mean, N=6, read-out: Cmax): 1000 ng/mL
AUC(0-t) ([2]; human, in vivo, sc, 15 mg, Group B2, 15 mg sc QD, Day 1, mean, N=6): 29600 ng·h/mL
Cmax ([2]; human, in vivo, sc, 15 mg, Group B2, 15 mg sc QD, Day 1, mean, N=6, read-out: Cmax): 1630 ng/mL
Cmax ([2]; human, in vivo, sc, 15 mg, Group B2, 15 mg sc QD, Day 14, mean, N=6, Table 6, read-out: Cmax): 3630 ng/mL
Cmax ([2]; human, in vivo, sc, 15 mg, Group B2, 15 mg sc QD, Day 14, mean, N=6, Table 7, read-out: Cmax): 3630 ng/mL
AUC(0-t) ([2]; human, in vivo, sc, 15 mg, Group B2, 15 mg sc QD, Day 14, mean, N=6): 67200 ng·h/mL
Cmax ([2]; human, in vivo, sc, 24 mg, Group A4, single 24.0 mg sc, mean, N=6, read-out: Cmax): 2360 ng/mL
AUC(0-t) ([2]; human, in vivo, sc, 30 mg, Group B3, 30 mg sc QD, Day 1, mean, N=6): 38400 ng·h/mL
Cmax ([2]; human, in vivo, sc, 30 mg, Group B3, 30 mg sc QD, Day 1, mean, N=6, read-out: Cmax): 2010 ng/mL
Cmax ([2]; human, in vivo, sc, 30 mg, Group B3, 30 mg sc QD, Day 14, mean, N=6, Table 6, read-out: Cmax): 6010 ng/mL
Cmax ([2]; human, in vivo, sc, 30 mg, Group B3, 30 mg sc QD, Day 14, mean, N=6, Table 7, read-out: Cmax): 6010 ng/mL
AUC(0-t) ([2]; human, in vivo, sc, 30 mg, Group B3, 30 mg sc QD, Day 14, mean, N=6): 118000 ng·h/mL
Cmax ([2]; human, in vivo, sc, 48 mg, Group A5, single 48.0 mg sc, mean, N=6, read-out: Cmax): 4560 ng/mL
Cmax ([2]; human, in vivo, subcutaneous, 4 mg, SAD study after 4 mg, read-out: Mean Cmax): 356 ng/mL
AUC(0-inf) ([2]; human, in vivo, Group A1, single 1.0 mg sc, mean, N=6): 3220 ng·h/mL
AUC(0-inf) ([2]; human, in vivo, Group A2, single 4.0 mg iv, mean, N=6): 19700 ng·h/mL
AUC(0-inf) ([2]; human, in vivo, Group A2, single 4.0 mg sc, mean, N=6): 15000 ng·h/mL
AUC(0-inf) ([2]; human, in vivo, Group A3, single 12.0 mg sc, mean, N=6): 37100 ng·h/mL
AUC(0-inf) ([2]; human, in vivo, Group A4, single 24.0 mg sc, mean, N=6): 78600 ng·h/mL
AUC(0-inf) ([2]; human, in vivo, Group A5, single 48.0 mg sc, mean, N=6): 178000 ng·h/mL
AUC(0-inf) ([2]; human, in vivo, Group B1, 5 mg sc QD, Day 14, mean, N=6): 50300 ng·h/mL
half-life ([2]; human, in vivo, Group B1, 5 mg sc QD, Day 14, mean, N=6, read-out: T½ (converted)): 23.4 h
AUC(0-inf) ([2]; human, in vivo, Group B2, 15 mg sc QD, Day 14, mean, N=6): 143000 ng·h/mL
half-life ([2]; human, in vivo, Group B2, 15 mg sc QD, Day 14, mean, N=6, read-out: T½ (converted)): 22.9 h
AUC(0-inf) ([2]; human, in vivo, Group B3, 30 mg sc QD, Day 14, mean, N=6): 278000 ng·h/mL
half-life ([2]; human, in vivo, Group B3, 30 mg sc QD, Day 14, mean, N=6, read-out: T½ (converted)): 24.3 h
half-life ([2]; human, in vivo, sc multiple ascending doses, read-out: Terminal half life): 23 to 24 h
dose proportionality of exposures ([2]; multiple ascending sc doses, up to dose regimen of 30 mg): increased dose-proportionally
dose proportionality of exposures ([2]; single ascending sc doses, up to a dose of 12 mg): increased dose-proportionally
AUC(0-inf) ([3]; Normal renal function group, mean, N=2): 12900 ng·h/mL
Cmax ([3]; Normal renal function group, mean, N=2, read-out: Cmax): 302 ng/mL
AUC(0-inf) ([3]; Severe renal impairment group, mean, N=5): 17000 ng·h/mL
Cmax ([3]; Severe renal impairment group, mean, N=5, read-out: Cmax): 392 ng/mL
Cmax ([3]; normal group, read-out: Mean Cmax): 302 ng/mL
Cmax ([3]; severe renal impaired group, read-out: Mean Cmax): 392 ng/mL
increase of mean AUCinf [3, 6]: 14-31%
increase of mean Cmax [3, 6]: 10-30%
tolerability and safety ([4]; 5 subjects severe renal impairment and 2 normal renal function): well tolerated and safe
severity of reported adverse events ([4]; two AEs (palpitation, headache) in one subject): grade 1 (mild)
